From article PMC9814781, “Structure-based design of a dual-warhead covalent inhibitor of FGFR4” (Communications Chemistry, 2022)

Tests used:
TSSK1 = TSSK1 (Homo sapiens, UniProt Q9BXA7); assay: Kinase selectivity profiling
IKK-beta = IKK-beta (Homo sapiens, UniProt O14920); assay: Kinase selectivity profiling
FGFR3 = FGFR3 (Homo sapiens, UniProt P22607); assay: Kinase selectivity profiling
TTK = TTK (Homo sapiens, UniProt P33981); assay: Kinase selectivity profiling
SRM = SRM (Homo sapiens, UniProt Q9H3Y6); assay: Kinase selectivity profiling
EPHA7 = EPHA7 (Homo sapiens, UniProt Q15375); assay: Kinase selectivity profiling
Sequence of EPHA7 (Q15375 28-998): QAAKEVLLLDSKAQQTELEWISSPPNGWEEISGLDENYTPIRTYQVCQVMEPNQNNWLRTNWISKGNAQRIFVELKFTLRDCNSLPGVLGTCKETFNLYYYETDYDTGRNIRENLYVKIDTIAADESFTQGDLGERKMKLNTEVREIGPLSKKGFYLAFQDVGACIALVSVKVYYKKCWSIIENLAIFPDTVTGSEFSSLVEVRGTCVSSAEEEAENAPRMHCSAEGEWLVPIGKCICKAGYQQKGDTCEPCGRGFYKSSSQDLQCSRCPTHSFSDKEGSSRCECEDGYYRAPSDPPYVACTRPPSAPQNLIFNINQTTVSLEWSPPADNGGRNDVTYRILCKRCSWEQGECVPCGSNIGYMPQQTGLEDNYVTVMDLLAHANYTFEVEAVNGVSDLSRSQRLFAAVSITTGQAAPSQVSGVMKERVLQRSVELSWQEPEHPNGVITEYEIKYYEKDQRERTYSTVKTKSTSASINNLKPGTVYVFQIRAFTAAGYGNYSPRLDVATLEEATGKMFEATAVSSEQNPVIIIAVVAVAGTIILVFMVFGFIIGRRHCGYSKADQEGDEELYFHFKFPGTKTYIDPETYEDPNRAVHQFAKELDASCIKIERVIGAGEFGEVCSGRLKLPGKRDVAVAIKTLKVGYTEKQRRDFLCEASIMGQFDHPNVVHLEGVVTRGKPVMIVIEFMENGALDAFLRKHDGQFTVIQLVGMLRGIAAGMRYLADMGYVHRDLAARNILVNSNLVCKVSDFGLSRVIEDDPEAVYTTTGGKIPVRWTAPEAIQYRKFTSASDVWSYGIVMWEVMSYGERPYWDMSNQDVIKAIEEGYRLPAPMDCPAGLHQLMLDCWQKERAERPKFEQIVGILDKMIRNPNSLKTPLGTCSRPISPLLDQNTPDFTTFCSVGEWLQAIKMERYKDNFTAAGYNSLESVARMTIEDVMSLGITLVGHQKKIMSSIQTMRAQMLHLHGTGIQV

HGK = HGK (Homo sapiens, UniProt O95819); assay: Kinase selectivity profiling
IKK-alpha(CHUK) = IKK-alpha(CHUK) (Homo sapiens, UniProt O15111); assay: Kinase selectivity profiling
p38β = p38β (Homo sapiens, UniProt Q15759); assay: Kinase selectivity profiling
Sequence of p38β (Q15759 whole entry): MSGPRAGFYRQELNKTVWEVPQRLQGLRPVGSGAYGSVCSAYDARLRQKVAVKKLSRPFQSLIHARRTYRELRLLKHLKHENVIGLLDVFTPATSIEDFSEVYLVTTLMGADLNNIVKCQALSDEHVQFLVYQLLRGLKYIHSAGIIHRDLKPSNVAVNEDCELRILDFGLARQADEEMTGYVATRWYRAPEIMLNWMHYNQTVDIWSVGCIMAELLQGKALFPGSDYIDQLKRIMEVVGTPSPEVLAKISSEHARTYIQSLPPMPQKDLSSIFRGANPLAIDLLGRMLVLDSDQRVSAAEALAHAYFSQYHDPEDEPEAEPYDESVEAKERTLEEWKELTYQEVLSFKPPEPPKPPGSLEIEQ

SGK3 = SGK3 (Homo sapiens, UniProt Q96BR1); assay: Kinase selectivity profiling
JNK2 = JNK2 (Homo sapiens, UniProt P45984); assay: Kinase selectivity profiling
BRAF = BRAF (Homo sapiens, UniProt P15056); assay: Kinase selectivity profiling
Sequence of BRAF (P15056 whole entry): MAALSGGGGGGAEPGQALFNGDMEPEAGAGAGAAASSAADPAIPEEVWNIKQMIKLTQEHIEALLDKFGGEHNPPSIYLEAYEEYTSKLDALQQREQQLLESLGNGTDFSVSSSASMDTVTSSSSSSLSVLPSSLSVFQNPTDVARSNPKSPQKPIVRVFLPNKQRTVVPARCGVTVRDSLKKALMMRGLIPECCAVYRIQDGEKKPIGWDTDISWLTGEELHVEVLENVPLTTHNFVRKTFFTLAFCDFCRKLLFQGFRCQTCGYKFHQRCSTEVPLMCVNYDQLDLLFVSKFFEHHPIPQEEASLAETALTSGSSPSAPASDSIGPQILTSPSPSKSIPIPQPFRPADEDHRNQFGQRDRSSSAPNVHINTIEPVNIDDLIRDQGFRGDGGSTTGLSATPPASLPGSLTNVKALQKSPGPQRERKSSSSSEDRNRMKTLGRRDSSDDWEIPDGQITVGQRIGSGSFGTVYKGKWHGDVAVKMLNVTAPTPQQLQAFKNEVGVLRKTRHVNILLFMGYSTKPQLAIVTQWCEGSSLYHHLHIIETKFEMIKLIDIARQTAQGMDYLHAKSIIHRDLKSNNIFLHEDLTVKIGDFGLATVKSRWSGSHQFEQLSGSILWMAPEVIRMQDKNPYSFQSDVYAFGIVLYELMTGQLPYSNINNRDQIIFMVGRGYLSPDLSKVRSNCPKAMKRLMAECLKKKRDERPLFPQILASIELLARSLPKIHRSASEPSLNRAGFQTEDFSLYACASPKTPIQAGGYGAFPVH

FLT3 = FLT3 (Homo sapiens, UniProt P36888); assay: Kinase selectivity profiling
Sequence of FLT3 (P36888 27-993): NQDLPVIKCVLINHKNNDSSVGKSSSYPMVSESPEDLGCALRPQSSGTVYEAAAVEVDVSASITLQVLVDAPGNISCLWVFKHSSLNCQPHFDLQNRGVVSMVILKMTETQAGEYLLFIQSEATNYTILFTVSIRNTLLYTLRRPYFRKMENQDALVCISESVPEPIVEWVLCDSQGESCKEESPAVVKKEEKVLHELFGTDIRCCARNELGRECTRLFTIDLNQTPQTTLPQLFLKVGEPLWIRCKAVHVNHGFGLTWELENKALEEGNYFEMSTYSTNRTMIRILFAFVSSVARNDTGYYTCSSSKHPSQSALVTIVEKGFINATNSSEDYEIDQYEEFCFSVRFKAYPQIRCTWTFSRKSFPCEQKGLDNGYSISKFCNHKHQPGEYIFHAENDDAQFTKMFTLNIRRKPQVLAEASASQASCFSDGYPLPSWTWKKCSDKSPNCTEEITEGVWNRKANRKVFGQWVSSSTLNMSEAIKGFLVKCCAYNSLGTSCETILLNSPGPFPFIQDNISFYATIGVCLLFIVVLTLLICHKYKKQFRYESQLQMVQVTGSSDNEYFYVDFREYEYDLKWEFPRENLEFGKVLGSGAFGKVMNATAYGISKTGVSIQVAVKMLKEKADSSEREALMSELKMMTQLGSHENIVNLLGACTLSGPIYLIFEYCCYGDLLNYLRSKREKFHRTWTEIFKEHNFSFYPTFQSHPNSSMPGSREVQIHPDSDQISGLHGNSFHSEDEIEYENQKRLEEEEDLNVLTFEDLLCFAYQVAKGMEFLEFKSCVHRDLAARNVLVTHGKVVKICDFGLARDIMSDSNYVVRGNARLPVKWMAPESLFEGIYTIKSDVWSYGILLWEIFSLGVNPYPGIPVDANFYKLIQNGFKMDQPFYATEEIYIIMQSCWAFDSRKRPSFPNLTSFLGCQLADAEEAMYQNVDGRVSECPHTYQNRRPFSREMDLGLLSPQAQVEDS

DYRK1A = DYRK1A (Homo sapiens, UniProt Q13627); assay: Kinase selectivity profiling
ABL1 = ABL1 (Homo sapiens, UniProt P00519); assay: Kinase selectivity profiling
IGF1R = IGF1R (Homo sapiens, UniProt P08069); assay: Kinase selectivity profiling
LYNa = LYNa (Homo sapiens, UniProt P07948); assay: Kinase selectivity profiling
CDK18/CycY = CDK18/CycY (Homo sapiens, UniProt Q07002); assay: Kinase selectivity profiling
Sequence of CDK18/CycY (Q07002 whole entry): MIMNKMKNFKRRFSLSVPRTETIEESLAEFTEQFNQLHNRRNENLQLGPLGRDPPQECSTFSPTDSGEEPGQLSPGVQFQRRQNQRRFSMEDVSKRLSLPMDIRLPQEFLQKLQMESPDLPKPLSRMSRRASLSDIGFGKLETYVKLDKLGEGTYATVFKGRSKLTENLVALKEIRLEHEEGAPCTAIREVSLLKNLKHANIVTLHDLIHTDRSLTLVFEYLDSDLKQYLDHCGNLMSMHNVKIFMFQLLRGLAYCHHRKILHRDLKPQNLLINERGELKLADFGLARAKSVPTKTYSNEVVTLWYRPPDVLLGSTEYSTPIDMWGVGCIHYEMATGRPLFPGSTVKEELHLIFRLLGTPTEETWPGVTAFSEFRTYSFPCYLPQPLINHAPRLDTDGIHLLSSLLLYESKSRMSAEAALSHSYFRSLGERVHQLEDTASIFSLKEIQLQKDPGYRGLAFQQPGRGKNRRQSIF
Sequence of CDK18/CycY (Q8ND76 whole entry partner): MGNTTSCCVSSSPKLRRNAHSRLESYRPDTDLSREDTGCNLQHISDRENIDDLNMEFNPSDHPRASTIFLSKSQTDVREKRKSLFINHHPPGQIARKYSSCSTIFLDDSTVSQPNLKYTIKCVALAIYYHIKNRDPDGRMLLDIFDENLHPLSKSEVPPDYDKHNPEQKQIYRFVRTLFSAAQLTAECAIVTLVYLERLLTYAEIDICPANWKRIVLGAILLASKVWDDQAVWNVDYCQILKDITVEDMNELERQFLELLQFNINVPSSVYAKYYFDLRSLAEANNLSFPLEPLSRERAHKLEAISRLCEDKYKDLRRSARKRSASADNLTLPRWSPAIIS

HIPK3 = HIPK3 (Homo sapiens, UniProt Q9H422); assay: Kinase selectivity profiling
KIT[D816V] = KIT[D816V] (Homo sapiens, UniProt P10721, D816V); assay: Kinase selectivity profiling
CDK1/CycE1 = CDK1/CycE1 (Homo sapiens, UniProt P06493); assay: Kinase selectivity profiling
YES = YES (Homo sapiens, UniProt P07947); assay: Kinase selectivity profiling
CDK16/CycY = CDK16/CycY (Homo sapiens, UniProt Q00536); assay: Kinase selectivity profiling
YSK1 = YSK1 (Homo sapiens, UniProt O00506); assay: Kinase selectivity profiling
Sequence of YSK1 (O00506 whole entry): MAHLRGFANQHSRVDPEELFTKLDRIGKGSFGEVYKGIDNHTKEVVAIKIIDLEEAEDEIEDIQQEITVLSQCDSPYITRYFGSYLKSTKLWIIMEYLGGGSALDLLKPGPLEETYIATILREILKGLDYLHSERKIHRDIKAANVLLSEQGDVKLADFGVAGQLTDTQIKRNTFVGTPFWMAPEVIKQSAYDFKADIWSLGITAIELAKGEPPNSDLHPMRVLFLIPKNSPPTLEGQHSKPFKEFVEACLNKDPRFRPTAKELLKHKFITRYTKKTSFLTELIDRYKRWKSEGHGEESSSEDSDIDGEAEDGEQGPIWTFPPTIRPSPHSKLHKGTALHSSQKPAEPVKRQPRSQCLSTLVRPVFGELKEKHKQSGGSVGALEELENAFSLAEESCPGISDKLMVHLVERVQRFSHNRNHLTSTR

FYNa = FYNa (Homo sapiens, UniProt P06241); assay: Kinase selectivity profiling
TGFβR2 = TGFβR2 (Homo sapiens, UniProt P37173); assay: Kinase selectivity profiling
HCK = HCK (Homo sapiens, UniProt P08631); assay: Kinase selectivity profiling
FGFR2 = FGFR2 (Homo sapiens, UniProt P21802); assay: Kinase inhibition assay (ADP-Glo); type: biochemical; set-up: FGFR2 (residues 453–770); 6xHis + PreScission site (N, cleaved yes); made in house; host or cells: Escherichia coli Rosseta
Sequence of FGFR2 (P21802 453-770): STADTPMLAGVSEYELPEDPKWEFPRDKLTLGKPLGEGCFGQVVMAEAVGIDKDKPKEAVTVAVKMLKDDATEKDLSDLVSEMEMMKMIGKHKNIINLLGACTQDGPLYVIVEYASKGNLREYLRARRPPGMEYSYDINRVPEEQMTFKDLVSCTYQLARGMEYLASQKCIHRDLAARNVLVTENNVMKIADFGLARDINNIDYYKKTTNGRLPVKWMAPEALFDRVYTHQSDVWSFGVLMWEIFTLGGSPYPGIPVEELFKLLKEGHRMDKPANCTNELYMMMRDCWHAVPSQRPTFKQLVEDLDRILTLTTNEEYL
Description: Wild-type FGFRs and mutant FGFRs were prepared as previously described[25]–[27]. In brief, the kinase domains of human FGFR1 (residues 456–765), FGFR2 (residues 453–770), FGFR3 (residues 450–758), and FGFR4 (residues 445–753) were cloned into a modified pET28a expression vector and then transfected into Escherichia coli Rosseta cells. The N-terminal of the recombinant proteins were contained a 6xHis tag followed by a PreScission cleavage site for FGFR1, FGFR2, FGFR3, and FGFR4. Site-directed mutagenesis of FGFR4 was generated according to the ClonExpress II One Step Cloning Kit (Vazyme) using the pET28a-FGFR4 plasmid as the template. These mutants were confirmed by DNA sequencing (Tsingke, Changsha, China). For crystallization experiments, the wild-type FGFR4 plasmid was co-expressed with untagged YOPH to obtain non-phosphorylated proteins. The proteins were first purified by Ni-NTA affinity chromatography. […]
All kinase inhibition assays were performed with optimized kinase assay buffer consisting of 40 mM Tris-HCl pH 7.5, 20 mM MgCl2, 20 mM NaCl, 0.1 mg/mL BSA, 1 mM TCEP, and 4% DMSO. […] Fluorescence was measured on a multimode plate reader (Perkin-Elmer) using a chemiluminescence program after the addition of the detection reagent. IC50 values were determined using a three-parameter log [Inhibitor] versus response model in GraphPad Prism software.

Sequence of TSSK1 (Q9BXA7 whole entry): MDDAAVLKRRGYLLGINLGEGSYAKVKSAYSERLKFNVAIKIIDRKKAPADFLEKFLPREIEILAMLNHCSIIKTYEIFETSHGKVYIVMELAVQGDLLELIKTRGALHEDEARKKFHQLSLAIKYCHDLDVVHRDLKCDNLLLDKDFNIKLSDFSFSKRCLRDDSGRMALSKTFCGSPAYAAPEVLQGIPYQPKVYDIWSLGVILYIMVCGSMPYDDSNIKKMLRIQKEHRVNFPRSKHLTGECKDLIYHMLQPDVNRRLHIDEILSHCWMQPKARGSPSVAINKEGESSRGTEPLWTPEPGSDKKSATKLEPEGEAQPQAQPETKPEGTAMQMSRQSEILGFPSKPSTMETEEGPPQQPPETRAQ

SMILES: C=CC(=O)Nc1ccccc1Nc1ncc2c(n1)N(CCCN1CCN(C(=O)C=C)CC1)C(=O)N(c1cc(OC)cc(OC)c1)C2 [CXF-009]
- inhibition at 1 µM (TSSK1): 30%
- inhibition at 1 µM (IKK-beta): 19%
- inhibition at 1 µM (FGFR3): 11.1%
- inhibition at 1 µM (TTK): 6.62%
- inhibition at 1 µM (SRM): 5.29%
- inhibition at 1 µM (EPHA7): 2.74%
- inhibition at 1 µM (HGK): 2.58%
- inhibition at 1 µM (IKK-alpha(CHUK)): 2.35%
- inhibition at 1 µM (p38β): 2.25%
- inhibition at 1 µM (SGK3): 1.58%
- inhibition at 1 µM (JNK2): 0.4%
- inhibition at 1 µM (BRAF): -0.93%
- inhibition at 1 µM (FLT3): -1.11%
- inhibition at 1 µM (DYRK1A): -1.23%
- inhibition at 1 µM (ABL1): -1.44%
- inhibition at 1 µM (IGF1R): -2.13%
- inhibition at 1 µM (LYNa): -2.53%
- inhibition at 1 µM (CDK18/CycY): -3.74%
- inhibition at 1 µM (HIPK3): -4.6%
- inhibition at 1 µM (KIT[D816V]): -6.19%
- inhibition at 1 µM (CDK1/CycE1): -7.18%
- inhibition at 1 µM (YES): -7.61%
- inhibition at 1 µM (CDK16/CycY): -7.9%
- inhibition at 1 µM (YSK1): -8.51%
- inhibition at 1 µM (FYNa): -9.44%
- inhibition at 1 µM (TGFβR2): -10.4%
- inhibition at 1 µM (HCK): -11.6%
- IC50 (FGFR2): 2410 nM
